Results from publication PMC3989207, “Subchronic Toxicological Study of Two Artemisinin Derivatives in Dogs” (PLoS ONE, 2014).

Columns and labels:
[1] = tested on: beagle dogs; assay: Clinical chemistry in the 13-week repeated-dose dog study; format: in vivo
Method: (§1) The first day of treatment was regarded as day one in the study. […] Oral administration was performed about 2 h after feeding. ARM was administered by a bolus intramuscular infusion through a 25-gauge needle at a constant volume of 2 ml kg^−1 once a day into the gluteal and infraspinous muscles. Two dogs of each sex from each group were allowed to recover without further treatment for an additional 4 weeks.
Blood samples were collected from the femoral vein of each dog prior to treatment and every 2 weeks after the first day of treatment. Hematology parameters were measured using an automated hematology analyzer (Sysmex, XT-2000iv, Toa Medical Electronics Co. Ltd., Kobe, Japan) using standard methods. Test parameters included hemoglobin (Hb) levels, the hematocrit (Hct) fraction, erythrocyte (RBC) count, leukocyte (WBC) count, neutrophilic granulocyte fraction (NE%), monocyte fraction (MO%), lymphocyte levels (LY%), platelet count (PLT), reticulocyte count (RET%) and RBC morphology. The following clinical chemistry parameters were measured using a Hitachi-7180 Chemistry Analyzer (High-Technologies Corporation, Tokyo, Japan) and standard methods: glucose, blood urea nitrogen, inorganic phosphorus, creatinine, total protein, albumin, calcium, aspartate aminotransferase (AST), alanine aminotransferase, alkaline phosphatase, total bilirubin, creatine kinase (CK), sodium, potassium and chloride.

[2] = parameters: method as in Li et al. (2006); settings: applied to ARM plasma levels; ref Li et al. (2006); cited from earlier work
[3] = tested on: Mouse; parameters: method as in Nontprasert et al., 2000 [42]; settings: 300 mg kg^−1 per day, p.o. for 28 days, ref Nontprasert et al., 2000 [42]; cited from earlier work
[4] = tested on: Rats; parameters: method as in Akinlolu and Shokunbi, 2008 [41]; settings: 25 mg kg^−1 per day, i.m. for 7 days, ref Akinlolu and Shokunbi, 2008 [41]; cited from earlier work
[5] = tested on: beagle dogs; assay: Pathologic (histopathological) examination of organs, brain and cardiac conduction system; format: in vivo, dog
Method: as §1
Termination of treatment was scheduled to occur on weeks 4, 8 (two interim necropsies) and 13, followed by a 4-week recovery period. For pathological examinations, the animals were euthanized within 24 h of the final drug administration with sodium pentobarbital, followed by exsanguination via the femoral artery. A gross necropsy was performed, including a thorough visual examination of all the internal organs. Weights were obtained for the brain, heart, liver, spleen, lung, kidneys, adrenals, thyroid/parathyroids, thymus, pancreas and ovaries/testes/prostate, and organ-to-body weight ratios were calculated. For each animal, representative samples from approximately 48 organs and tissues were taken and fixed in neutral buffered 10% formalin, except for the sternum, which was retained in Helly’s fixative (1000 ml distilled water, 25 g potassium dichromate, 10 g sodium sulfate, 50 g mercuric chloride, 50 ml 40% formaldehyde). Histopathological sections of all samples were prepared by embedding in paraffin wax, multiple-sectioning and staining with hematoxylin and eosin (HE). Samples of the left ventricular myocardium, right lateral hepatic lobe and right kidney from two animals of each sex from each group were fixed immediately after exsanguination in 2.5% glutaraldehyde, post-fixed in 1.0% osmium tetroxide, and embedded in plastic. Ultrathin liver, kidney and heart sections were examined with a Hitachi H-600 transmission electron microscope (TEM). All other tissues were examined by light microscopy.
After removal, the cardiac conduction system, including the sinoatrial node (SAN) and atrioventricular node (AVN), were selected by the Palate method. The brain was sectioned at multiple transverse levels to obtain susceptible brain regions. To improve the definition of the brain lesions, toluidine stains were applied on selected duplicate sections, and all preparations were examined under a light microscope. For pathologic examinations, degenerative neurons were evaluated on three randomly selected brain sections. The adjacent fields of neurons in each selected section were counted using a microscope at a magnification of 200×. […] The severity of the neuropathological lesions was defined as follows: the total number of neuropathological lesions per section area yielded a severity score from 0 to 4, where 0 = unaffected, 1 = minimally affected neurons with one degenerative cell per section, 2 = two degenerative cells per section, 3 = three degenerative cells per section and 4 = multiple degenerative areas per section.

[6] = weeks 4 and 6 post-treatment, vs control group (p<0.01)
[7] = Week 4, 6 mg kg^-1 per day (ART p.o., ARM i.m.)
[8] = Week 8, 6 mg kg^-1 per day (ART p.o., ARM i.m.)
[9] = Week 13, 6 mg kg^-1 per day (ART p.o., ARM i.m.)
[10] = Week 17 (after 4-week recovery)
[11] = both treated groups, no significant differences

Compound: CO[C@H]1O[C@@H]2O[C@@]3(C)CC[C@H]4[C@H](C)CC[C@@H]([C@H]1C)[C@@]24OO3 [ARM, artemether]
- Clinical chemistry: AST(M) ([1]; Week 13, males, 6 mg kg^-1 per day): ↑↑AST(M)
- serum AST [1, 6]: significant increases
- serum CK [1, 6]: significant increases
- serum albumin levels ([1]; weeks 4 and 10, same changes also in peanut oil only group): significant decrease
- lowest observed neurotoxic effect level (plasma concentration) [2]: 40.92 ng/mL
- Effect (toxicology) [3]: Balance/gait disturbances and mortality
- Effect (toxicology) [4]: Damage of trapezoid nuclei, abnormalities in balance and coordination
- Cardiac conduction system foci (dogs affected/examined) [5, 7]: 0
- Extramedullary hematopoiesis (dogs affected/examined) [5, 7]: 2/4
- Hepatocyte necrosis (dogs affected/examined) [5, 7]: 3/4
- Inhibition of erythropoiesis (dogs affected/examined) [5, 7]: 4/4
- Neuronal necrosis (dogs affected/examined) [5, 7]: 0
- Tubular cell degeneration (dogs affected/examined) [5, 7]: 4/4
- Cardiac conduction system foci (dogs affected/examined) [5, 8]: 0
- Extramedullary hematopoiesis (dogs affected/examined) [5, 8]: 3/4
- Hepatocyte necrosis (dogs affected/examined) [5, 8]: 2/4
- Inhibition of erythropoiesis (dogs affected/examined) [5, 8]: 2/4
- Neuronal necrosis (dogs affected/examined) [5, 8]: 2/4
- Tubular cell degeneration (dogs affected/examined) [5, 8]: 3/4
- Cardiac conduction system foci (dogs affected/examined) [5, 9]: 0
- Extramedullary hematopoiesis (dogs affected/examined) [5, 9]: 1/4
- Hepatocyte necrosis (dogs affected/examined) [5, 9]: 0
- Inhibition of erythropoiesis (dogs affected/examined) [5, 9]: 2/4
- Neuronal necrosis (dogs affected/examined) [5, 9]: 4/4
- Tubular cell degeneration (dogs affected/examined) [5, 9]: 2/4
- Cardiac conduction system foci (dogs affected/examined) [5, 10]: 0
- Extramedullary hematopoiesis (dogs affected/examined) [5, 10]: 0
- Hepatocyte necrosis (dogs affected/examined) [5, 10]: 0
- Inhibition of erythropoiesis (dogs affected/examined) [5, 10]: 0
- Neuronal necrosis (dogs affected/examined) [5, 10]: 1/4
- Tubular cell degeneration (dogs affected/examined) [5, 10]: 1/4
- dogs with neuropathological abnormalities ([5]; after the 4-week recovery period, mild damage): one of the four dogs
- histological examination of sternal bone marrow [5, 11]: mild inhibition of erythropoiesis and a decreased count of mature erythrocytes
- spleen histology [5, 11]: extramedullary hematopoiesis was observed in the spleen
- mean severity score of the lesions in the brain ([5]; score 0 (unaffected) to 4 (multiple degenerative areas per section)): 2.14
- light microscopy of liver sections ([5]; some dogs, characterized as very mild): degenerative hepatocellular changes
- histopathological changes in the kidneys ([5]; vs control groups): tubular epithelium vacuolation and necrosis
- dogs with neuropathological abnormalities ([5]; week 8, two of the four dogs examined): 50%
- dogs with neuropathological abnormalities ([5]; week 13, four of the four dogs examined): 100%
